Results published in patent US8604021B2, “Substituted arylamine compounds and methods of treatment” (priority 2005, dated 2013).
Where a name gives a salt, the structure may show the parent alone. Read-outs that look alike come from different tables or passages of the source. Values belong to the compound of their own block, whether it stands above or below them.

Assays:
5-HT6 receptor = 5-HT6 receptor (Homo sapiens, UniProt P50406); assay: 5-HT6 receptor binding
[1] = Food intake, body weight and plasma biomarkers in DIO (diet-induced obese) rats; type: in vivo; conditions: DIO rats, 3, 10 mg/kg bid, two weeks
5HT1A = molecular target: T1, 5HT1A (Homo sapiens, UniProt P08908); assay: Compound Binding Profiles: 5HT1A; conditions: read-out: 5HT1A binding class
T1 sequence (P08908 1-422): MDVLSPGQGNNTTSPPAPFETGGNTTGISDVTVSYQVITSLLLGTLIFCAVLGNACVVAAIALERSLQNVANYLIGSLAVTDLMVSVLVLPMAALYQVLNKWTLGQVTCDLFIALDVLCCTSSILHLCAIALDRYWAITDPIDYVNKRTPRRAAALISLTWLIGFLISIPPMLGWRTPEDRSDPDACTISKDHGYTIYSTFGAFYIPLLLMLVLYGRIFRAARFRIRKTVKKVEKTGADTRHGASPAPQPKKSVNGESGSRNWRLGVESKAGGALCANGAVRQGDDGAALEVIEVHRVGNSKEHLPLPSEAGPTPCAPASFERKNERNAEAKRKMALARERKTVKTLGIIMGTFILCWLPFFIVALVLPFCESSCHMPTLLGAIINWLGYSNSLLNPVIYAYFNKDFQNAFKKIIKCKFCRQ

5HT2A = 5HT2A (Homo sapiens, UniProt P28223); assay: Compound Binding Profiles: 5HT2A
Sequence of 5HT2A (P28223 whole entry, species assumed): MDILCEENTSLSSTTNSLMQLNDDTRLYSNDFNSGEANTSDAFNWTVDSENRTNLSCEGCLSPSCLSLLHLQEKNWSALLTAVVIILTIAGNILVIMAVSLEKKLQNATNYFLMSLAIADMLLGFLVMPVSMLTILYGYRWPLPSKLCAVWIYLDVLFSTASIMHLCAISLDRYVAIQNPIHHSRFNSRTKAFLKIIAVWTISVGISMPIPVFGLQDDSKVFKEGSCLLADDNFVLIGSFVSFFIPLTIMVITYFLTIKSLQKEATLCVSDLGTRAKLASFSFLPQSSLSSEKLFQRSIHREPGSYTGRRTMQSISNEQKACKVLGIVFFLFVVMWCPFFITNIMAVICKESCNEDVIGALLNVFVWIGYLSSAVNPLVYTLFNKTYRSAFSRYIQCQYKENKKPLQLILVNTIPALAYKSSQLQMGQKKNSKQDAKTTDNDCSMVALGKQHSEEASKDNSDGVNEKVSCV

5HT2C = molecular target: T2, 5HT2C (Homo sapiens, UniProt P28335); assay: Compound Binding Profiles: 5HT2C
T2 sequence (P28335 33-458): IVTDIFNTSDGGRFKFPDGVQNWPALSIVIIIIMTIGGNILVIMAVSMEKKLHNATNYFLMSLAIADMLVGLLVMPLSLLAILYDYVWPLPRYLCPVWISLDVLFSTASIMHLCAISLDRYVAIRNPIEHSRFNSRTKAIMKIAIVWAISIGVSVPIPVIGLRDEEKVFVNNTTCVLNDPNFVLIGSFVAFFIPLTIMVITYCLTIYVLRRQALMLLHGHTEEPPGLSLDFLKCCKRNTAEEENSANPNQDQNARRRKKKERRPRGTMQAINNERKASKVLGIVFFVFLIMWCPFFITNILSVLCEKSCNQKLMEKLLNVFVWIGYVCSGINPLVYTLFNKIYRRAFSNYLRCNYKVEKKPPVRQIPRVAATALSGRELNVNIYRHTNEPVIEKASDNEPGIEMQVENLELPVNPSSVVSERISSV

D1 = D1 (Homo sapiens, UniProt P21728); assay: Compound Binding Profiles: D1; conditions: read-out: D1 binding class
Sequence of D1 (P21728 whole entry): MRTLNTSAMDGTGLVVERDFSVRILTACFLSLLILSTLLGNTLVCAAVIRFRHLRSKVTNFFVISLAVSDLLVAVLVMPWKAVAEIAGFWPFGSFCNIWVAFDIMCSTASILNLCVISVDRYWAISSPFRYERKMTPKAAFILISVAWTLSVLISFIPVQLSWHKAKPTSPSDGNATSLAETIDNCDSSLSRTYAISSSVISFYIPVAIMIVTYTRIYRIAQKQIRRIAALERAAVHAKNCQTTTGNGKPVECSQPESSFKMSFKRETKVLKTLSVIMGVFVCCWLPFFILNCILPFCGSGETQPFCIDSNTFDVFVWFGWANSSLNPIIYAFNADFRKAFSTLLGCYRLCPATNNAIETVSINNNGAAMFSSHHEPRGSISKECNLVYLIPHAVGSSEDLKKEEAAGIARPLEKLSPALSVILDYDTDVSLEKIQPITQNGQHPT

D2 = D2 (Homo sapiens, UniProt P14416); assay: Compound Binding Profiles: D2; conditions: * = Estimated IC50
Sequence of D2 (P14416 whole entry): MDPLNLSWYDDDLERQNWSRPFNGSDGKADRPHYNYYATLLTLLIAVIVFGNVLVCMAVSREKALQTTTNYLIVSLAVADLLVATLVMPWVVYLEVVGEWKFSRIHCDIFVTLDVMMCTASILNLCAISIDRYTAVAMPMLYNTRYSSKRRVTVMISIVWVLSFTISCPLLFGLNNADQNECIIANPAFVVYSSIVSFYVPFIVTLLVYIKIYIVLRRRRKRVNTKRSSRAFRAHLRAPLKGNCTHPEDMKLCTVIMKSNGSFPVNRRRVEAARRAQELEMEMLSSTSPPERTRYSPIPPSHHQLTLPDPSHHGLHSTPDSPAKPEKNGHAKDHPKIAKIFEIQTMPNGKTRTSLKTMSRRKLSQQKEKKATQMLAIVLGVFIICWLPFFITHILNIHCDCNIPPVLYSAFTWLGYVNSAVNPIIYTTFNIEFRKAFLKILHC

D3 = D3 (Homo sapiens, UniProt P35462); assay: Compound Binding Profiles: D3
Sequence of D3 (P35462 whole entry): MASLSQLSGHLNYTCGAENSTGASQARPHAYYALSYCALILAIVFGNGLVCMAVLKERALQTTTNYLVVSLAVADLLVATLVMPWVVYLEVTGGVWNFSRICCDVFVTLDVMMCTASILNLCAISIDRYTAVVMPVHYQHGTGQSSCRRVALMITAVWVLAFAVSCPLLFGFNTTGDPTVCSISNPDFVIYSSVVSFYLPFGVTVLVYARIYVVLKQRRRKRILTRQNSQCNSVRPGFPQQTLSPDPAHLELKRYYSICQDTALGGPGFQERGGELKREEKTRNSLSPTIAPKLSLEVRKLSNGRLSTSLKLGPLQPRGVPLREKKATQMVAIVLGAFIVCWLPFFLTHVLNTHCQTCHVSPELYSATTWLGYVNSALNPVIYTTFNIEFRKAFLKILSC

D4 = molecular target: T3, D4 (Homo sapiens, UniProt P21917); assay: Compound Binding Profiles: D4; conditions: read-out: D4 binding class
T3 sequence (P21917 1-419): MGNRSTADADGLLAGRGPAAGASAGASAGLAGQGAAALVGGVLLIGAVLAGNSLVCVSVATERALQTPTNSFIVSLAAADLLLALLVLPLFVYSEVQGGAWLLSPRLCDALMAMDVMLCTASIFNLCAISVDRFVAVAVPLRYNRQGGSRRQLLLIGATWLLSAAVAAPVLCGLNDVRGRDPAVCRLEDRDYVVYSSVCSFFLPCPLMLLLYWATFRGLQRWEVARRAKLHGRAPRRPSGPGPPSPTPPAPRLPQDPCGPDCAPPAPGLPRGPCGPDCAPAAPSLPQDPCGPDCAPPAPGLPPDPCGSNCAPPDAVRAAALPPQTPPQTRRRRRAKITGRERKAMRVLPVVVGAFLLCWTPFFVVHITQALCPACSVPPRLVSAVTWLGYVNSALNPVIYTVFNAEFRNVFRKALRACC

M1 = molecular target: T4, M1 (Homo sapiens, UniProt P11229); assay: Compound Binding Profiles: M1
T4 sequence (P11229 1-460): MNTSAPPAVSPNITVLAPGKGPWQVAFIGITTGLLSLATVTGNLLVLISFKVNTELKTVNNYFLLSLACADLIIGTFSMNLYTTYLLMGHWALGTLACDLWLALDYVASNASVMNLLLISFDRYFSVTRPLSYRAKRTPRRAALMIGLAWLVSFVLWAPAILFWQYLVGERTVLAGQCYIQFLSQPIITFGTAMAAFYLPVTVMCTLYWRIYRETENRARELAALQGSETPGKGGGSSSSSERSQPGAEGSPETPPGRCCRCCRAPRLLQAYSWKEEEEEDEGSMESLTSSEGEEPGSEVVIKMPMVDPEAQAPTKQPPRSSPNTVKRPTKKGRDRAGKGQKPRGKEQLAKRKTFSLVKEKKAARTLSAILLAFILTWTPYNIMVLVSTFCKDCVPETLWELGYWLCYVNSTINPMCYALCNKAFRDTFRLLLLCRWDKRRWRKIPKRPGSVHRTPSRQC

α1 = assay: Compound Binding Profiles: α1
α2 = assay: Compound Binding Profiles: α2
H1 = H1 (Homo sapiens, UniProt P35367); assay: Compound Binding Profiles: H1; conditions: * = Estimated IC50
Sequence of H1 (P35367 whole entry): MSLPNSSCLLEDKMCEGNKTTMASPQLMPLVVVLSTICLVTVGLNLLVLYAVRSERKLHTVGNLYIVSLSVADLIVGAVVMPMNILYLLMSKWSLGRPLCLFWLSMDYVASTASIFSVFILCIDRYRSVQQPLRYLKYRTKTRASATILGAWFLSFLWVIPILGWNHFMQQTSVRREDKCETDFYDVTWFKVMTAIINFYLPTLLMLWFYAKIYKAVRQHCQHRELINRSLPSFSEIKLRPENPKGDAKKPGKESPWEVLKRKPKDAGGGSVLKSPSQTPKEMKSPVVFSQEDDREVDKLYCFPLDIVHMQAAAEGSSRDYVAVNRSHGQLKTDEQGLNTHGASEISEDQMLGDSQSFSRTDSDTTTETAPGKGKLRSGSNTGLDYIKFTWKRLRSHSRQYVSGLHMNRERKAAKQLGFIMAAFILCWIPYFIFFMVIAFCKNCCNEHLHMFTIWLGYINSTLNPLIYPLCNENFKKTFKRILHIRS

[2] = Novel object recognition test; type: in vivo, C57Bl/6J mice; conditions: for effect on recognition index / object recognition compared to vehicle: 0.1 mg/kg i.p
Text: Male C57Bl/6J mice from Jackson Laboratories (Bar Harbor, Me.) were used. Mice were received at 6-weeks of age. Upon receipt, mice were assigned unique identification numbers (tail marked) and were group housed in polycarbonate cages with filter tops. All animals remained housed in groups of four during the remainder of the study. All mice were acclimated to the colony room for at least two weeks prior to testing and were subsequently tested at an average age of 8 weeks of age. During the period of acclimation, mice were examined on a regular basis, handled, and weighed to assure adequate health and suitability. Mice were maintained on a 12/12 light/dark cycle with the light on at 6:00 a.m. The room temperature was maintained between 20 and 23° C. with a relative humidity maintained between 30% and 70%. Chow and water were provided ad libitum for the duration of the study. In each test, animals were randomly assigned across treatment groups.
The pH at the 10 mg/kg was around 5.5.
Rolipram, also dissolved in 10% DMSO was only administered 20 min prior to training on Day 2.
On Day 1, mice were habituated to a circular open field environment (d=18 in, h=15 cm) for one hour in cage groups of four. Each Arena was constructed out of acrylic that was painted black to block reflection. On day 2, mice were placed back into the same arena for a training trial and allowed to explore a set of two identical objects placed equidistance apart from both each other and the arena walls. Individual mice were trained for a total of 15 minutes and then placed back into their home cages. On Day 3, mice were placed back into the same arena in the presence of both the familiar (previously explored) and a novel object. The spatial positions of the familiar and novel object (i.e. left-right sides) were counterbalanced between subjects. The difference in time spent exploring each object during the test trial was used as an index of object recognition and memory retention. Each animals test trial was recorded and these tapes were observed and scored after test completion. The first 10 min of each session was scored and object recognition was computed using the formula: (Time spent with novel object*100)/(Total Time exploring both objects). Tissue Harvest
Data were analyzed by analysis of variance (ANOVA) followed by post-hoc comparisons with Fisher Tests when appropriate. An effect was considered significant if p<0.05. Data are represented as the mean and standard error to the mean.

[3] = * = Estimated IC50, hydrochloride

Sequence of 5-HT6 receptor (P50406 whole entry): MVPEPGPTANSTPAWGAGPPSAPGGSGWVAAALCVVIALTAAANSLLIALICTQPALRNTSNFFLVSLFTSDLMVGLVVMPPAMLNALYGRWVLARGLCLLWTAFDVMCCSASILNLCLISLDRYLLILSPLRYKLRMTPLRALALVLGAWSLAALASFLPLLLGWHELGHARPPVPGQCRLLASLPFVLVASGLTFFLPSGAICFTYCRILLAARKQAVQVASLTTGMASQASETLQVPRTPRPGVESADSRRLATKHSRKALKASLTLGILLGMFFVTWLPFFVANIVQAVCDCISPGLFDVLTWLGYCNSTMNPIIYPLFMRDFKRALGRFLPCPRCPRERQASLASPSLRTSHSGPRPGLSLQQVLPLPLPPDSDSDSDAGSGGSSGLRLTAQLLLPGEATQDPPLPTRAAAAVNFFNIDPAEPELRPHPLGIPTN

SMILES: COc1cc(Cl)cc(C(C)Nc2cc(N3CCNCC3)ccc2S(C)(=O)=O)c1OC (single isomer, unassigned; (+)) [(+) isomer, [1-(5-Chloro-2,3-dimethoxy-phenyl)-ethyl]-(2-methanesulfonyl-5-piperazin-1-yl-phenyl)-amine hydrochloride]
Ki (5-HT6 receptor; read-out: 5-HT6 Ki): 18 nM

SMILES: COc1cc(Cl)cc(C(C)Nc2cc(N3CCNCC3)ccc2S(C)(=O)=O)c1OC (single isomer, unassigned; (-)) [(−) isomer, [1-(5-Chloro-2,3-dimethoxy-phenyl)-ethyl]-(2-methanesulfonyl-5-piperazin-1-yl-phenyl)-amine hydrochloride]
Ki (5-HT6 receptor; 5-HT6 Ki): 4.5 nM

Ki (5-HT6 receptor; read-out: 5-HT6 Ki): 47 nM
SMILES: CC(Nc1cc(N2CCNCC2)ccc1S(C)(=O)=O)c1ccccc1 (stereo not shown) [Compound B, 2-(Methylsulfonyl)-N-(1-phenylethyl)-5-(piperazin-1-yl)benzenamine hydrochloride]

Ki (5-HT6 receptor; read-out: 5-HT6 Ki): 34 nM
SMILES: COc1cc(OC)cc(C(C)Nc2cc(N3CCNCC3)ccc2C(=O)C(F)(F)F)c1 (stereo not shown) [Compound C, 1-(2-(1-(3,5-Dimethoxyphenyl)ethylamino)-4-(piperazin-1-yl)phenyl)-2,2,2-trifluoroethanone hydrochloride]

Ki (5-HT6 receptor; read-out: 5-HT6 Ki): 27 nM
SMILES: COc1cc(OC)cc(C(C)Nc2cc(N3CCNCC3)ccc2S(C)(=O)=O)c1.Cl (stereo not shown) [Compound D, N-(1-(3,5-Dimethoxyphenyl)ethyl-2-(methylsulfonyl)-5-(piperazin-1-yl)-benzeneamine hydrochloride]

SMILES: COc1cc(OC)cc(C(C)Nc2cc(N3CCNCC3)ccc2S(C)(=O)=O)c1.Cl (stereo not shown) [Compound D]
body weight [1]: significant decrease
food intake [1]: significant decrease
plasma level of Insulin [1]: reduction
plasma level of Leptin [1]: reduction
plasma level of NEFA [1]: reduction
plasma level of triglycerides [1]: reduction

SMILES: CC(Nc1cc(N2CCNCC2)ccc1S(C)(=O)=O)c1cc(Cl)cc2c1OCCO2 (stereo not shown) [Cpd. E, N-(1-(6-Chloro-2,3-dihydrobenzo[b][1,4]dioxin-8-yl)ethyl)-2-(methylsulfonyl)-5-(piperazin-1-yl)benzenamine hydrochloride]
Ki (5HT1A): 100 to 1000 nM
Ki (5HT2A): 150 nM
Ki (5HT2C): 12 nM
Ki (5-HT6 receptor; binding profile table, read-out: 5HT6 Ki): 1.3 nM
Ki (D1): 100 to 1000 nM
IC50 (D2): 613 nM
Ki (D3): 2.8 nM
Ki (D4): 100 to 1000 nM
IC50 (M1; * = Estimated IC50): 10 µM
IC50 (α1; [3]): 24 µM
IC50 (α2; [3]): 30 µM
IC50 (H1): 20 µM

SMILES: COc1ccc(C2CNC(=O)C2)cc1OC1CCCC1 (stereo not shown) [Rolipram, reference compound]
Exploration time, Diff of Means Novel vs. Familiar ([2]; 0.1 mg/kg): 29.803
time exploring novel object versus familiar object ([2]; 0.1 mg/kg): spent more time exploring novel object than the familiar object
effect on recognition index / object recognition compared to vehicle [2]: significant, positive effect on object recognition
effect on recognition index / object recognition compared to vehicle ([2]; listed as rolipram): significantly increased the recognition index
Memory index, Mean ([2]; 0.1 mg/kg, 10 min test): 71.670
Exploration time, Mean ([2]; 0.1 mg/kg, Familiar Object): 19.172
Exploration time, Mean ([2]; 0.1 mg/kg, Novel Object): 48.975
Exploration time, Diff of Means 10% DMSO vs. treatment ([2]; within Familiar, 0.1 mg/kg): 4.807
Exploration time, Diff of Means treatment vs. 10% DMSO ([2]; within Novel, 0.1 mg/kg): 17.991

Ki (5HT1A): < 10 nM
Ki (5-HT6 receptor; read-out: 5HT6 binding class): 11 to 100 nM
Ki (M1; read-out: M1 binding class): < 10 nM
Ki (α1; read-out: α1 binding class): 100 to 1000 nM
Ki (α2; read-out: α2 binding class): 100 to 1000 nM
SMILES: O=C1Cc2cc(CCN3CCN(c4nsc5ccccc45)CC3)c(Cl)cc2N1 [Ziprasidome, reference compound]
